{
  "source": "paper PMC7099627",
  "about": "“Design, synthesis, heme binding and density functional theory studies of isoindoline-dione-4-aminoquinolines as potential antiplasmodials” (Future Medicinal Chemistry, 2019)",
  "key": {"[1]": {"system": "chloroquine-resistant W2 strain of Plasmodium falciparum", "experiment": "Antiplasmodial activity, growth inhibition by flow cytometry", "format": "cell-based", "description": "The compounds were added from DMSO stocks; the maximum concentration of DMSO used was 0.1%. Controls without inhibitors included 0.1% DMSO. […] Fixed parasites were then transferred to 0.1% Triton X-100 in phosphate-buffered saline containing 1 nM YOYO-1 dye (Molecular Probes, MA, USA). Parasitemia was determined from dot plots (forward scatter vs fluorescence) acquired on a FACSort flow cytometer using Cell Quest software (Beckton Dickinson, NJ, USA). IC50 values for growth inhibition were determined from plots of percent control parasitemia over inhibitor concentration using the Prism 5.0 program (GraphPad Software, CA, USA), with data from duplicate experiments fitted by nonlinear regression.\nThe synthesized C4/C5substituted-isoindoline-1,3-diones-4-aminoquinolines were screened for their antiplasmodial activity against CQR (W2) strain of P. falciparum (Table 1)."}, "Vero cells": {"system": "Vero cells", "experiment": "Cytotoxicity assay (resazurin cell viability)", "format": "cell-based", "settings": "for SI (selectivity index): Vero cytotoxicity vs W2 antiplasmodial IC50", "description": "(§1) Cell viability was determined using Vero cells (ATCC, Sigma, Munich, Germany), which were grown in RPMI medium (Gibco) supplemented with 10% decomplemented fetal calf serum under 5% CO2 atmosphere."}, "[2]": {"experiment": "Cytotoxicity assay (resazurin cell viability)", "format": "cell-based", "settings": "African green monkey; mammalian Vero cells, 24 h incubation, resazurin", "description": "as §1"}, "[3]": {"experiment": "Heme-binding spectrophotometric titration (HypSpec)", "settings": "40% aq. DMSO, heme 12 μM", "protocol": "The resultant 40% DMSO solutions maintain the hematin solutions in the monomeric state at concentrations used. […] All the working solutions were kept in dark to avoid photo-sensitivity. Diluent solutions were prepared by dissolving 1 mL of 0.02 M HEPES and 4 mL of spectroscopic grade DMSO and made up to a final volume of 10 mL with ultrapure, HPLC grade Hipersolv water."}, "[4]": {"settings": "chloroquine-resistant W2 strain, 48 h incubation, read-out: IC50"}, "[5]": {"settings": "Plasmodium falciparum, W2, 48 h, chloroquine-resistant W2 strain, 48 h incubation, read-out: IC50"}, "[6]": {"settings": "mammalian Vero cells, 24 h incubation, resazurin, read-out: IC50 (μM cytotoxicity)"}, "[7]": {"settings": "Plasmodium falciparum, W2, chloroquine-resistant W2 strain, Figure 1, read-out: IC50"}},
  "note": "Like-named read-outs stand apart in the source and are kept apart here.",
  "data": [
    {"smiles": "O=C1c2cccc(N3CCCCC3)c2C(=O)N1CCNc1ccnc2cc(Cl)ccc12", "note": "[4a]", "values": [
      {"measurement": "IC50", "setting": "[1]; [4]", "result": 158, "unit": "nM"},
      {"measurement": "IC50", "setting": "Vero cells", "result": "< 28.8", "unit": "µM"}
    ]},
    {"smiles": "O=C1c2cccc(N3CCCCC3)c2C(=O)N1CCCNc1ccnc2cc(Cl)ccc12", "note": "[4b]", "values": [
      {"measurement": "IC50", "setting": "[1]; [5]", "result": 162, "unit": "nM"},
      {"measurement": "SI (selectivity index)", "setting": "Vero cells", "result": 344.4},
      {"measurement": "IC50", "setting": "Vero cells; [6]", "result": 55.8, "unit": "µM"}
    ]},
    {"smiles": "O=C1c2cccc(N3CCCCC3)c2C(=O)N1CCCCNc1ccnc2cc(Cl)ccc12", "note": "[4c, 2-(4-((7-chloroquinolin-4-yl)amino)butyl)-4-(piperidin-1-yl)isoindoline-1,3-dione]", "values": [
      {"measurement": "IC50", "setting": "[1]; [5]", "result": 50, "unit": "nM"},
      {"measurement": "IC50", "setting": "[1]; [4]", "result": 51, "unit": "nM"},
      {"measurement": "SI (selectivity index)", "setting": "Vero cells", "result": 1060.7},
      {"measurement": "IC50", "setting": "Vero cells; [6]", "result": 54.1, "unit": "µM"}
    ]},
    {"smiles": "O=C1c2cccc(N3CCCCC3)c2C(=O)N1CCCCCCNc1ccnc2cc(Cl)ccc12", "note": "[4d, 2-(6-((7-chloroquinolin-4-yl)amino)hexyl)-4-(piperidin-1-yl)isoindoline-1,3-dione]", "values": [
      {"measurement": "IC50", "setting": "[1]; [5]", "result": 75, "unit": "nM"},
      {"measurement": "SI (selectivity index)", "setting": "Vero cells", "result": 2720},
      {"measurement": "IC50", "setting": "Vero cells; [6]", "result": 204, "unit": "µM"}
    ]},
    {"smiles": "O=C1c2ccc(N3CCCCC3)cc2C(=O)N1CCNc1ccnc2cc(Cl)ccc12", "note": "[4e]", "values": [
      {"measurement": "IC50", "setting": "[1]; [4]", "result": 163, "unit": "nM"},
      {"measurement": "IC50", "setting": "Vero cells", "result": "< 28.8", "unit": "µM"}
    ]},
    {"smiles": "O=C1c2ccc(N3CCCCC3)cc2C(=O)N1CCCNc1ccnc2cc(Cl)ccc12", "note": "[4f, 2-(3-((7-chloroquinolin-4-yl)amino)propyl)-5-(piperidin-1-yl)isoindoline-1,3-dione]", "values": [
      {"measurement": "IC50", "setting": "[1]; [5]", "result": 176, "unit": "nM"},
      {"measurement": "SI (selectivity index)", "setting": "Vero cells", "result": 317},
      {"measurement": "IC50", "setting": "Vero cells; [6]", "result": 55.8, "unit": "µM"}
    ]},
    {"smiles": "O=C1c2ccc(N3CCCCC3)cc2C(=O)N1CCCCNc1ccnc2cc(Cl)ccc12", "note": "[4g]", "values": [
      {"measurement": "IC50", "setting": "[1]; [5]", "result": 77, "unit": "nM"},
      {"measurement": "IC50 at 24 h", "setting": "[2]", "result": "< 27", "unit": "µM"}
    ]},
    {"smiles": "O=C1c2ccc(N3CCCCC3)cc2C(=O)N1CCCCCCNc1ccnc2cc(Cl)ccc12", "note": "[4h]", "values": [
      {"measurement": "IC50", "setting": "[1]; [4]", "result": 123, "unit": "nM"},
      {"measurement": "IC50", "setting": "Vero cells", "result": "< 25.5", "unit": "µM"}
    ]},
    {"smiles": "O=C1c2cccc(N3CCOCC3)c2C(=O)N1CCNc1ccnc2cc(Cl)ccc12", "note": "[4i]", "values": [
      {"measurement": "IC50", "setting": "[1]; [5]", "result": 180, "unit": "nM"},
      {"measurement": "IC50 at 24 h", "setting": "[2]", "result": "< 28.6", "unit": "µM"}
    ]},
    {"smiles": "O=C1c2cccc(N3CCOCC3)c2C(=O)N1CCCNc1ccnc2cc(Cl)ccc12", "note": "[4j]", "values": [
      {"measurement": "IC50", "setting": "[1]; [5]", "result": 276, "unit": "nM"},
      {"measurement": "SI (selectivity index)", "setting": "Vero cells", "result": 805},
      {"measurement": "IC50", "setting": "Vero cells; [6]", "result": 222, "unit": "µM"}
    ]},
    {"smiles": "O=C1c2cccc(N3CCOCC3)c2C(=O)N1CCCCNc1ccnc2cc(Cl)ccc12", "note": "[4k, 2-(4-((7-chloroquinolin-4-yl)amino)butyl)-4-morpholinoisoindoline-1,3-dione]", "values": [
      {"measurement": "IC50", "setting": "[1]; [5]", "result": 71, "unit": "nM"},
      {"measurement": "SI (selectivity index)", "setting": "Vero cells", "result": 1517},
      {"measurement": "IC50", "setting": "Vero cells; [6]", "result": 108, "unit": "µM"}
    ]},
    {"smiles": "O=C1c2cccc(N3CCOCC3)c2C(=O)N1CCCCCCNc1ccnc2cc(Cl)ccc12", "note": "[4l]", "values": [
      {"measurement": "IC50", "setting": "[1]; [5]", "result": 25, "unit": "nM"},
      {"measurement": "IC50", "setting": "Vero cells; [6]", "result": 50.8, "unit": "µM"}
    ]},
    {"smiles": "O=C1c2ccc(N3CCOCC3)cc2C(=O)N1CCNc1ccnc2cc(Cl)ccc12", "note": "[4m, 2-(2-((7-chloroquinolin-4-yl)amino)ethyl)-5-morpholinoisoindoline-1,3-dione]", "values": [
      {"measurement": "IC50", "setting": "[1]; [5]", "result": 370, "unit": "nM"},
      {"measurement": "IC50 at 24 h", "setting": "[2]", "result": "< 28.6", "unit": "µM"}
    ]},
    {"smiles": "O=C1c2ccc(N3CCOCC3)cc2C(=O)N1CCCNc1ccnc2cc(Cl)ccc12", "note": "[4n]", "values": [
      {"measurement": "IC50", "setting": "[1]; [5]", "result": 118, "unit": "nM"},
      {"measurement": "SI (selectivity index)", "setting": "Vero cells", "result": 1883},
      {"measurement": "IC50", "setting": "Vero cells; [6]", "result": 222, "unit": "µM"}
    ]},
    {"smiles": "O=C1c2ccc(N3CCOCC3)cc2C(=O)N1CCCCNc1ccnc2cc(Cl)ccc12", "note": "[4o, 2-(4-((7-chloroquinolin-4-yl)amino)butyl)-5-morpholinoisoindoline-1,3-dione]", "values": [
      {"measurement": "IC50", "setting": "[1]; [5]", "result": 49, "unit": "nM"},
      {"measurement": "IC50 at 24 h", "setting": "[2]", "result": "< 26.9", "unit": "µM"}
    ]},
    {"smiles": "O=C1c2ccc(N3CCOCC3)cc2C(=O)N1CCCCCCNc1ccnc2cc(Cl)ccc12", "note": "[4p]", "values": [
      {"measurement": "IC50", "setting": "[1]; [5]", "result": 19, "unit": "nM"},
      {"measurement": "IC50 at 24 h", "setting": "[2]", "result": "< 25.4", "unit": "µM"}
    ]},
    {"smiles": "O=C1c2ccc(N3CCN(CCO)CC3)cc2C(=O)N1CCNc1ccnc2cc(Cl)ccc12", "note": "[4q]", "values": [
      {"measurement": "IC50", "setting": "[1]; [5]", "result": 44, "unit": "nM"},
      {"measurement": "IC50 at 24 h", "setting": "[2]", "result": "< 26", "unit": "µM"}
    ]},
    {"smiles": "O=C1c2ccc(N3CCN(CCO)CC3)cc2C(=O)N1CCCNc1ccnc2cc(Cl)ccc12", "note": "[4r, 2-(3-((7-chloroquinolin-4-yl)amino)propyl)-5-(4-(2-hydroxyethyl)piperazin-1-yl)isoindoline-1,3-dione]", "values": [
      {"measurement": "IC50", "setting": "[1]; [7]", "result": 6.6, "unit": "nM"},
      {"measurement": "activity relative to CQ (fold higher)", "setting": "[1]; antiplasmodial activity vs CQ", "result": "~12", "unit": "fold"},
      {"measurement": "IC50", "setting": "[1]; [4]", "result": 6, "unit": "nM"},
      {"measurement": "Monomeric Heme log K", "setting": "[3]; pH 5.6 (MES buffer)", "result": 5.41},
      {"measurement": "Monomeric Heme log K", "setting": "[3]; pH 7.4 (HEPES buffer)", "result": 5.14},
      {"measurement": "IC50 at 24 h", "setting": "[2]", "result": "< 25.3", "unit": "µM"}
    ]},
    {"smiles": "O=C1c2ccc(N3CCN(CCO)CC3)cc2C(=O)N1CCCCNc1ccnc2cc(Cl)ccc12", "note": "[4s, 2-(4-((7-chloroquinolin-4-yl)amino)butyl)-5-(4-(2-hydroxyethyl)piperazin-1-yl)isoindoline-1,3-dione]", "values": [
      {"measurement": "IC50", "setting": "[1]; [5]", "result": 14, "unit": "nM"},
      {"measurement": "IC50 at 24 h", "setting": "[2]", "result": "< 24.6", "unit": "µM"}
    ]},
    {"smiles": "O=C1c2ccc(N3CCN(CCO)CC3)cc2C(=O)N1CCCCCCNc1ccnc2cc(Cl)ccc12", "note": "[4t]", "values": [
      {"measurement": "IC50", "setting": "[1]; [5]", "result": 15, "unit": "nM"},
      {"measurement": "IC50 at 24 h", "setting": "[2]", "result": "< 23.3", "unit": "µM"}
    ]},
    {"smiles": "C[C@@H]1CC[C@H]2[C@@H](C)C(=O)O[C@@H]3O[C@@]4(C)CC[C@@H]1[C@]32OO4", "note": "[ART, Artemisinin, reference compound]", "values": [
      {"measurement": "IC50", "setting": "[1]; [5]", "result": 5, "unit": "nM"},
      {"measurement": "IC50", "setting": "[1]; [7]", "result": 5.3, "unit": "nM"}
    ]},
    {"smiles": "CCN(CC)CCCC(C)Nc1ccnc2cc(Cl)ccc12", "note": "(stereo not shown) [CQ, Chloroquine, reference compound]", "values": [
      {"measurement": "IC50", "setting": "[1]; Plasmodium falciparum, W2, 48 h", "result": 79, "unit": "nM"}
    ]}
  ]
}
